Converted amounts (≈) assume the structure as drawn. The source made the active and inactive calls. The calls are words filed in the database; no cut-off is given here.
Experiments:
Assay type in all cases: functional, cell-based
MCF7 = experiment: Cytotoxicity against human MCF7 after 48 hrs cells by SRB assay
HeLa = experiment: Cytotoxicity against human HeLa cells after 48 hrs by SRB assay
U-251 = experiment: Cytotoxicity against human U251 cells after 48 hrs by SRB assay
HepG2 = experiment: Cytotoxicity against human HEPG2 cells after 48 hrs by SRB assay

Compound	IC50 (MCF7) [µg/mL]	IC50 (HeLa) [µg/mL]	Activity (U-251)	Activity (HepG2)
N#Cc1cnc(N)nc1-c1c[nH]c2ccccc12	0.85 (≈ 3.61 µM)	2.65 (≈ 11.3 µM)	inactive	inactive
N/N=C(\N)c1cnc(N)nc1-c1c[nH]c2ccccc12	0.25 (≈ 0.935 µM)		inactive	inactive
Nc1ncc(C(=O)O)c(-c2c[nH]c3ccccc23)n1	0.75 (≈ 2.95 µM)		inactive	inactive
Nc1nccc(-c2c[nH]c3ccccc23)n1			inactive	inactive
